# From patent publication US12421229B2, “Hydropyrido[1,2-α]pyrazine compounds for the treatment of autoimmune disease” (Hoffmann-La Roche Inc., priority 2019, dated 2025)
# pIC50: −log10 of the molar value.
# Assays:
# human TLR7 = biological target: T1, human TLR7 (Homo sapiens, UniProt Q9NYK1); test: HEK293-Blue-hTLR-7 cells assay; format: cell-based; conditions: HEK293-Blue-hTLR7 cells, R848 stimulation, 20 hrs, SEAP reporter; read-out: HEK/hTLR7 IC50
# T1 construct: host or cells: HEK293 (HEK-Blue hTLR7)
# T1 sequence (Q9NYK1 27-1049): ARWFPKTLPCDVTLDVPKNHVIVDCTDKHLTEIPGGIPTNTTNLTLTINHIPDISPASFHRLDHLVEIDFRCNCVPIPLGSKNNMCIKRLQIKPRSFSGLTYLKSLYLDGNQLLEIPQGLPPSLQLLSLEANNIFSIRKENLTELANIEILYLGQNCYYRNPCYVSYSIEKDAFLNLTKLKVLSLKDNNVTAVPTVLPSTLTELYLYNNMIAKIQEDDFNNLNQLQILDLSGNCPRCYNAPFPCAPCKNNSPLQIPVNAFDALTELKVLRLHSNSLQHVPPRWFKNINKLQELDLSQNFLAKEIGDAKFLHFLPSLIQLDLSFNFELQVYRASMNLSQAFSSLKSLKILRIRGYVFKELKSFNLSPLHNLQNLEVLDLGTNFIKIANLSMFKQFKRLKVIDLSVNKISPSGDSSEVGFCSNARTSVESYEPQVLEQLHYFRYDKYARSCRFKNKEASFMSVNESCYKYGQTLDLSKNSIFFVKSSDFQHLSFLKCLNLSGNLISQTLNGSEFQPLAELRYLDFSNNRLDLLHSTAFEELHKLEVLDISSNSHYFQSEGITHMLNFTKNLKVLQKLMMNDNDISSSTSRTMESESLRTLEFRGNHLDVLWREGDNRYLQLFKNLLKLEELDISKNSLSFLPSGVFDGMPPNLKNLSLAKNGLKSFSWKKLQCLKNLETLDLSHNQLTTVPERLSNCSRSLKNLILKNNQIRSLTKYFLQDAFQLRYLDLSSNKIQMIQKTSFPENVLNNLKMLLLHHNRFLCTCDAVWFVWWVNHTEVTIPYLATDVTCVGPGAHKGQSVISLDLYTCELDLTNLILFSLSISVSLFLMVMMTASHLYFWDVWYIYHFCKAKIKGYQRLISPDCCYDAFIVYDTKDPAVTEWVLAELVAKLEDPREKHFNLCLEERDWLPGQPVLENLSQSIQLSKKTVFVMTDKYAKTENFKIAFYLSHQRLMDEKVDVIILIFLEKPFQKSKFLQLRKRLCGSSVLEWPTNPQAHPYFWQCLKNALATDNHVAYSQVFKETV
# From the text: A stable HEK293-Blue-hTLR-7 cell line was purchased from InvivoGen (Cat. #: hkb-htlr7, San Diego, California, USA). These cells were originally designed for studying the stimulation of human TLR7 by monitoring the activation of NF-κB. A SEAP (secreted embryonic alkaline phosphatase) reporter gene was placed under the control of the IFN-β minimal promoter fused to five NF-κB and AP-1-binding sites. The SEAP was induced by activating NF-κB and AP-1 via stimulating HEK-Blue hTLR7 cells with TLR7 ligands. Therefore the reporter expression was declined by TLR7 antagonist under the stimulation of a ligand, such as R848 (Resiquimod), for incubation of 20 hrs. The cell culture supernatant SEAP reporter activity was determined using QUANTI-Blue™ kit (Cat. #: rep-qb1, Invivogen, San Diego, Ca, USA) at a wavelength of 640 nm, a detection medium that turns purple or blue in the presence of alkaline phosphatase.
# HEK293-Blue-hTLR7 cells were incubated at a density of 250,000˜450,000 cells/mL in a volume of 170 μL in a 96-well plate in Dulbecco's Modified Eagle's medium (DMEM) containing 4.5 g/L glucose, 50 U/mL penicillin, […], […], 2 mM L-glutamine, 10% (v/v) heat-inactivated fetal bovine serum with addition of 20 μL test compound in a serial dilution in the presence of final DMSO at 1% and 10 μL of 20 uM R848 in above DMEM, perform incubation under 37° C. in a CO2 incubator for 20 hrs. Then 20 μL of the supernatant from each well was incubated with 180 μL Quanti-blue substrate solution at 37° C. for 2 hrs and the absorbance was read at 620˜655 nm using a spectrophotometer. The signaling pathway that TLR7 activation leads to downstream NF-κB activation has been widely accepted, and therefore similar reporter assay was modified for evaluating TLR7 antagonist.
# CYP2C9 = biological target: T2, CYP2C9 (Homo sapiens, UniProt P11712); test: CYP inhibition assay in human liver microsome, CYP2C9; format: in vitro ADME; conditions: percentage inhibition, substrate Diclofenac 5 μM
# T2 construct: tissue BD-Gentest 452117; host or cells: human liver microsomes
# Description: (§1) This is a high throughput screening assay used for assessment of reversible inhibition of CYP2C9, CYP2D6, and CYP3A4 activity of test compounds in human liver microsome (HLM) in early discovery stage.
# (§2) 10 mM DMSO stock solutions of test compounds were diluted in DMSO to generate 2 mM intermediate stock solution. 250 nL of intermediate stock solution were transferred in duplicate into 3 separate 384 well microtitre plates (assay-ready plates). A mixture of HLM and each substrate was made up. 45 μL of HLM substrate mix was then transferred to each well of an assay ready plate and mixed. The negative (solvent) and positive controls (standard inhibitor for each CYP) were included in each assay ready plate. The assay ready plate was warmed to 37° C. in an incubator over 10 minutes. 5 μL pre-warmed NADPH regenerating system was added to each incubation well to start the reaction. Final incubation volume was 50 μL. The assay plate then was placed back in the 37° C. incubator. After incubation (10 minutes for CYP2D6) for 5 minutes, incubates were quenched by addition of 50 μL 100% acetonitrile containing internal standards (400 ng/mL 13C6-4′-OH-Diclofenac, 20 ng/mL D3-Dextrorphan and 20 ng/mL D4-1′OH-Midazolam). The supernatants were collected for RapidFire/MS/MS analysis.
# (§3) RapidFire online solid phase extraction/sample injection system (Agilent) coupled with API4000 triple quadrupole mass spectrometer (AB Sciex) were used for sample analysis. The mobile phase composed of acetonitrile and water supplemented with 0.1% formic acid. A C4 solid phase extraction cartridge is used for sample separation. MS detection is achieved in positive ion MRM mode.
# (§4) Peak areas for substrate, metabolite and internal standard are determined using the RapidFire integrator software (version 3.6.12009.12296). Peak area ratios (PAR) of metabolite and internal standard (stable-labelled metabolite) are then calculated. The measurement window for each experiment is then defined:
# (§5) PAR (0% activity)=average PAR for all incubations containing concentrated inhibitor;
# (§6) Par (100% activity)=average PAR for all incubations containing no inhibitor (DMSO controls);
# (§7) % Activity (test inhibitor)=[PAR(test inhibitor)−PAR(0% activity)/PAR(100% activity)−PAR(0% activity)];
# (§8) % Inhibition (test inhibitor)=100−% Activity (test inhibitor).
# CYP3A4 = biological target: T3, CYP3A4 (Homo sapiens, UniProt P08684); test: CYP inhibition assay in human liver microsome, CYP3A4; format: in vitro ADME; conditions: percentage inhibition, substrate Midazolam 5 μM
# T3 construct: tissue BD-Gentest 452117; host or cells: human liver microsomes
# Description: as §1, §2, §3, §4, §5, §6, §7, §8
# T3 sequence (P08684 whole entry): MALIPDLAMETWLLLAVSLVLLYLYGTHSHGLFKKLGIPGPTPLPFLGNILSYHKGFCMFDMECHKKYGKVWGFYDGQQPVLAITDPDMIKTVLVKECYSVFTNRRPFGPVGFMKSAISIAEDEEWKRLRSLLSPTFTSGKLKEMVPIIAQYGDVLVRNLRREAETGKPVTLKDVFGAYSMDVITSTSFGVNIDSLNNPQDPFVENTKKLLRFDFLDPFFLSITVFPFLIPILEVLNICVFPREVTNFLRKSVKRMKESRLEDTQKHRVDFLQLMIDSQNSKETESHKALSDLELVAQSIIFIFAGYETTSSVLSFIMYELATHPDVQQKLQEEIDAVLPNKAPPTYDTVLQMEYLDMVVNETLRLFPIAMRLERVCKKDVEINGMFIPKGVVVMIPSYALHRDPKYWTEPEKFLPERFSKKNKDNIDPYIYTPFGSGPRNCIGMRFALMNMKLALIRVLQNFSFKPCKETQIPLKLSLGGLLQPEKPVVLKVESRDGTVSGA
# T2 sequence (P11712 whole entry): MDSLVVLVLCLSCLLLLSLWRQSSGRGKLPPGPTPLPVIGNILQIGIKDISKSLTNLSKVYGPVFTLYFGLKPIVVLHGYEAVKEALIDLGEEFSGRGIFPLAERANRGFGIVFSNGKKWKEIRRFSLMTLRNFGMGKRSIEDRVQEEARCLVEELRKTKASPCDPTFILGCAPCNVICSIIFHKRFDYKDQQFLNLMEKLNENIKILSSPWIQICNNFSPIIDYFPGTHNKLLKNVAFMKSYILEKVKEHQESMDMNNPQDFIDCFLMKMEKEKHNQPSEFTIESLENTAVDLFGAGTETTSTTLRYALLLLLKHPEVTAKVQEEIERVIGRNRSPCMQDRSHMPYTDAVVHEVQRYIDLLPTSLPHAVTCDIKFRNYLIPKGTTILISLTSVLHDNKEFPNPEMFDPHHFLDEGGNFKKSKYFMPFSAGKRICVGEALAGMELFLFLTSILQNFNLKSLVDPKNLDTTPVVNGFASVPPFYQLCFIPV
Compound,pIC50 (human TLR7),CYP (%) 2C9 (CYP2C9) [%],CYP (%) 3A4 (CYP3A4) [%]
"CO[C@H]1CN(c2ccc([C@@H]3CCN4[C@@H](C3)CN(c3ccc(C#N)c5ncccc35)C[C@H]4C)cn2)C[C@@H]1N [Example 6, 5-[(4R,8R,9aS)-8-[6-[(3S,4S)-3-amino-4-methoxy-pyrrolidin-1-yl]-3-pyridyl]-4-methyl-1,3,4,6,7,8,9,9a-octahydropyrido[1,2-a]pyrazin-2-yl]quinoline-8-carbonitrile]",7.39,−8,11
"C[C@@H]1CN(c2ccc(C#N)c3ncccc23)C[C@@H]2C[C@H](Nc3ccc(C[C@@H]4CNCCO4)cc3)CCN21 [Example 21, 5-[(4R,8R,9aS)-4-methyl-8-[4-[[(2R)-morpholin-2-yl]methyl]anilino]-1,3,4,6,7,8,9,9a-octahydropyrido[1,2-a]pyrazin-2-yl]quinoline-8-carbonitrile]",7.70,3,15.5
"C[C@@H]1CN(c2ccc(C#N)c3ncccc23)C[C@@H]2C[C@H](c3ccc([C@@H]4CNCCO4)cc3)CCN21 [Example 27, 5-[(4R,8R,9aS)-4-methyl-8-[4-[(2R)-morpholin-2-yl]phenyl]-1,3,4,6,7,8,9,9a-octahydropyrido[1,2-a]pyrazin-2-yl]quinoline-8-carbonitrile]",8.40,4,37
"[2H]c1ccc2c(N3C[C@@H]4C[C@H](Nc5ccc(C[C@H]6CNCCO6)cc5)CCN4[C@H](C)C3)ccc(C#N)c2n1 [Example 34, 5-[(4R,8R,9aS)-4-methyl-8-[4-[[(2S)-morpholin-2-yl]methyl]anilino]-1,3,4,6,7,8,9,9a-octahydropyrido[1,2-a]pyrazin-2-yl]-2-deuterio-quinoline-8-carbonitrile]",7.33,−20,3.5
[2H]c1ccc2c(N3C[C@@H]4C[C@@H](N5CC(c6ccc(N7C[C@@H](N)[C@H](OC)C7)cc6)C5)CCN4[C@H](C)C3)ccc(C#N)c2n1 [Example 36],7.52,,

# Continued, values first:
pIC50 (human TLR7),CYP (%) 2C9 (CYP2C9) [%],CYP (%) 3A4 (CYP3A4) [%],Compound
8.40,6,38,"C[C@@H]1CN(c2ccc(C#N)c3ncccc23)C[C@@H]2C[C@H](c3ccc(N4CCNCC4)nc3)CCN21 (stereo in doubt) [Example 2, 5-[(4R,8R)-4-methyl-8-(6-piperazin-1-yl-3-pyridyl)-1,3,4,6,7,8,9,9a-octahydropyrido[1,2-a]pyrazin-2-yl]quinoline-8-carbonitrile]"
7.57,−6.5,9.5,"C[C@@H]1CN(c2ccc(C#N)c3ncccc23)C[C@@H]2C[C@H](N3CC(c4ccc(N5CCNCC5)cc4)C3)CCN21 [Example 9, 5-[(4R,8R,9aS)-4-methyl-8-[3-(4-piperazin-1-ylphenyl)azetidin-1-yl]-1,3,4,6,7,8,9,9a-octahydropyrido[1,2-a]pyrazin-2-yl]quinoline-8-carbonitrile]"
7.34,0,12,"C[C@@H]1CN(c2ccc(C#N)c3ncccc23)C[C@@H]2C[C@@H](Oc3ccc(N4CCNCC4)cn3)CCN21 [Example 11, 5-[(4R,8S,9aS)-4-methyl-8-[(5-piperazin-1-yl-2-pyridyl)oxy]-1,3,4,6,7,8,9,9a-octahydropyrido[1,2-a]pyrazin-2-yl]quinoline-8-carbonitrile]"
7.77,14.5,37.5,"CO[C@H]1CN(c2ccc([C@@H]3CCN4[C@@H](C3)CN(c3ccc(C#N)c5ncccc35)C[C@H]4C)cn2)C[C@H]1N [Example 12, 5-[(4R,8R,9aS)-8-[6-[(3R,4S)-3-amino-4-methoxy-pyrrolidin-1-yl]-3-pyridyl]-4-methyl-1,3,4,6,7,8,9,9a-octahydropyrido[1,2-a]pyrazin-2-yl]quinoline-8-carbonitrile]"
7.64,−1,19.5,"CO[C@@H]1CN(c2ccc([C@@H]3CCN4[C@@H](C3)CN(c3ccc(C#N)c5ncccc35)C[C@H]4C)cn2)C[C@H]1N [Example 14, 5-[(4R,8R,9aS)-8-[6-[(3R,4R)-3-amino-4-methoxy-pyrrolidin-1-yl]-3-pyridyl]-4-methyl-1,3,4,6,7,8,9,9a-octahydropyrido[1,2-a]pyrazin-2-yl]quinoline-8-carbonitrile]"
7.82,−3.5,30,"C[C@@H]1CN(c2ccc(C#N)c3ncccc23)C[C@@H]2C[C@H](c3ccc(N4C[C@@H](N)[C@@H](F)C4)nc3)CCN21 [Example 19, 5-[(4R,8R,9aS)-8-[6-[(3R,4S)-3-amino-4-fluoro-pyrrolidin-1-yl]-3-pyridyl]-4-methyl-1,3,4,6,7,8,9,9a-octahydropyrido[1,2-a]pyrazin-2-yl]quinoline-8-carbonitrile]"
7.96,4.5,32.5,"[2H]c1ccc2c(N3C[C@@H]4C[C@H](N5CCN(c6ccncc6)CC5)CCN4[C@H](C)C3)ccc(C#N)c2n1 [Example 37, 5-[(4R,8R,9aS)-4-methyl-8-[4-(4-pyridyl)piperazin-1-yl]-1,3,4,6,7,8,9,9a-octahydropyrido[1,2-a]pyrazin-2-yl]-2-deuterio-quinoline-8-carbonitrile]"
